Test results as given in the NIST ThermoML archive (doi:10.1021/acs.jced.8b00212).
± gives the expanded uncertainty stated by the source.

Settings: Fluid (supercritical or subcritical phases), Brillouin light scattering

Q: What does the source list for CCCCCCC [heptane]?
A: speed of sound (513.4 K, 8000 kPa): 451.65 ± 18 m/s; speed of sound (513.58 K, 6000 kPa): 394.15 ± 14 m/s; speed of sound (513.59 K, 3000 kPa): 293.56 ± 8.7 m/s; speed of sound (513.65 K, 4000 kPa): 333.84 ± 11 m/s; speed of sound (513.92 K, 2500 kPa): 266.66 ± 7.5 m/s; speed of sound (515.23 K, 5000 kPa): 363.89 ± 12 m/s; speed of sound (515.3 K, 10000 kPa): 481.16 ± 20 m/s; speed of sound (521.41 K, 5000 kPa): 337.01 ± 11 m/s; speed of sound (523.19 K, 10000 kPa): 459.31 ± 19 m/s; speed of sound (523.83 K, 3000 kPa): 242.56 ± 6.7 m/s; speed of sound (524.25 K, 4000 kPa): 291.43 ± 8.7 m/s; speed of sound (524.62 K, 6000 kPa): 357.73 ± 12 m/s; speed of sound (524.62 K, 8000 kPa): 417.84 ± 16 m/s; speed of sound (525.23 K, 2500 kPa): 196.31 ± 5.5 m/s; speed of sound (528.41 K, 3000 kPa): 218.56 ± 5.8 m/s; speed of sound (528.9 K, 4000 kPa): 269.01 ± 7.6 m/s; speed of sound (528.93 K, 2500 kPa): 167.01 ± 5 m/s; speed of sound (528.95 K, 8000 kPa): 403.55 ± 15 m/s; speed of sound (529.1 K, 6000 kPa): 344.17 ± 11 m/s; speed of sound (532.76 K, 3000 kPa): 193.81 ± 5.4 m/s; speed of sound (533.4 K, 10000 kPa): 437.12 ± 17 m/s; speed of sound (533.55 K, 4000 kPa): 252.16 ± 6.9 m/s; speed of sound (533.57 K, 8000 kPa): 391.25 ± 14 m/s; speed of sound (533.77 K, 6000 kPa): 331.99 ± 10 m/s; speed of sound (534.12 K, 2500 kPa): 121.38 ± 4.8 m/s; speed of sound (534.45 K, 5000 kPa): 293.97 ± 8.7 m/s; speed of sound (537.58 K, 4000 kPa): 231.06 ± 6.4 m/s; speed of sound (538.13 K, 2500 kPa): 101.28 ± 3.8 m/s; speed of sound (538.36 K, 3000 kPa): 152.7 ± 4.5 m/s; speed of sound (538.84 K, 8000 kPa): 376.34 ± 13 m/s; speed of sound (539.09 K, 6000 kPa): 316.72 ± 9.6 m/s; speed of sound (541.47 K, 4000 kPa): 208.26 ± 5.3 m/s; speed of sound (542.55 K, 8000 kPa): 364.39 ± 12 m/s; speed of sound (543.16 K, 10000 kPa): 413.25 ± 15 m/s; speed of sound (543.5 K, 5000 kPa): 262.34 ± 7.4 m/s; speed of sound (543.6 K, 6000 kPa): 300.59 ± 8.8 m/s; speed of sound (544.09 K, 2500 kPa): 100.71 ± 2.2 m/s; speed of sound (544.95 K, 3000 kPa): 115.6 ± 3.4 m/s; speed of sound (547.02 K, 2500 kPa): 107.6 ± 2.3 m/s; speed of sound (548.66 K, 8000 kPa): 346.4 ± 11 m/s; speed of sound (548.98 K, 6000 kPa): 283.97 ± 8.1 m/s; speed of sound (549.04 K, 3000 kPa): 105.27 ± 2.9 m/s; speed of sound (549.16 K, 4000 kPa): 178.39 ± 4.8 m/s; speed of sound (552.59 K, 2500 kPa): 118.66 ± 2.5 m/s; speed of sound (553.05 K, 6000 kPa): 270.32 ± 7.5 m/s; speed of sound (553.19 K, 8000 kPa): 335.76 ± 11 m/s; speed of sound (553.2 K, 10000 kPa): 388.87 ± 14 m/s; speed of sound (553.42 K, 5000 kPa): 225.17 ± 5.8 m/s; speed of sound (553.43 K, 4000 kPa): 160.12 ± 4 m/s; speed of sound (553.93 K, 3000 kPa): 110.64 ± 2.6 m/s; speed of sound (557.81 K, 8000 kPa): 325.48 ± 10 m/s; speed of sound (557.86 K, 6000 kPa): 255.8 ± 6.9 m/s; speed of sound (559.74 K, 3000 kPa): 116.03 ± 2.4 m/s; speed of sound (559.91 K, 2500 kPa): 129.19 ± 2.8 m/s; speed of sound (560.41 K, 4000 kPa): 132.63 ± 2.9 m/s; speed of sound (563.03 K, 10000 kPa): 363.89 ± 12 m/s; speed of sound (563.09 K, 3000 kPa): 119.84 ± 2.5 m/s; speed of sound (563.58 K, 8000 kPa): 312.82 ± 9.5 m/s; speed of sound (563.84 K, 6000 kPa): 236.54 ± 6.2 m/s; speed of sound (563.94 K, 4000 kPa): 124.51 ± 2.9 m/s; speed of sound (564.02 K, 2500 kPa): 135.46 ± 3 m/s; speed of sound (565.65 K, 5000 kPa): 187.87 ± 4.7 m/s; speed of sound (572.57 K, 2500 kPa): 144.47 ± 3.2 m/s; speed of sound (573.39 K, 10000 kPa): 345.21 ± 11 m/s; speed of sound (574.33 K, 3000 kPa): 134.46 ± 3 m/s; speed of sound (574.41 K, 8000 kPa): 287.41 ± 8.2 m/s; speed of sound (574.85 K, 6000 kPa): 211.93 ± 5.4 m/s; speed of sound (574.87 K, 5000 kPa): 160.49 ± 3.9 m/s; speed of sound (575.28 K, 4000 kPa): 113.58 ± 2.4 m/s; speed of sound (577.04 K, 5000 kPa): 154.18 ± 3.8 m/s; speed of sound (579.18 K, 10000 kPa): 331.94 ± 10 m/s; speed of sound (582.31 K, 5000 kPa): 142.67 ± 3.3 m/s; speed of sound (582.39 K, 3000 kPa): 142.99 ± 3.1 m/s; speed of sound (582.86 K, 10000 kPa): 325.02 ± 10 m/s; speed of sound (583.1 K, 8000 kPa): 270.69 ± 7.5 m/s; speed of sound (583.18 K, 6000 kPa): 191.45 ± 4.8 m/s; speed of sound (584.19 K, 2500 kPa): 156.26 ± 3.5 m/s; speed of sound (584.6 K, 4000 kPa): 122.55 ± 2.5 m/s; speed of sound (587.85 K, 10000 kPa): 315.79 ± 9.6 m/s; speed of sound (588.17 K, 5000 kPa): 139.88 ± 3.2 m/s; speed of sound (590.48 K, 2500 kPa): 161.58 ± 3.6 m/s; speed of sound (591.62 K, 4000 kPa): 127.84 ± 2.6 m/s; speed of sound (591.77 K, 3000 kPa): 152.87 ± 3.5 m/s; speed of sound (592.28 K, 5000 kPa): 136.41 ± 3 m/s; speed of sound (592.57 K, 6000 kPa): 176.14 ± 4.2 m/s; speed of sound (592.71 K, 10000 kPa): 307.49 ± 9.3 m/s; speed of sound (593.19 K, 8000 kPa): 249.19 ± 6.7 m/s; speed of sound (597.48 K, 5000 kPa): 135.43 ± 3.2 m/s; speed of sound (601.6 K, 2500 kPa): 170.4 ± 3.8 m/s; speed of sound (602.3 K, 5000 kPa): 135.26 ± 2.9 m/s; speed of sound (602.84 K, 3000 kPa): 161.38 ± 3.6 m/s; speed of sound (603.51 K, 10000 kPa): 291.2 ± 8.6 m/s; speed of sound (603.68 K, 4000 kPa): 143.88 ± 3.1 m/s; speed of sound (604.1 K, 6000 kPa): 161.83 ± 3.7 m/s; speed of sound (604.67 K, 8000 kPa): 226 ± 5.8 m/s; speed of sound (607.65 K, 5000 kPa): 136.72 ± 3.1 m/s; speed of sound (612.08 K, 4000 kPa): 149.82 ± 3.2 m/s; speed of sound (612.37 K, 3000 kPa): 167.57 ± 3.7 m/s; speed of sound (612.58 K, 2500 kPa): 179.23 ± 4.1 m/s; speed of sound (613.73 K, 6000 kPa): 158.49 ± 3.6 m/s; speed of sound (613.93 K, 8000 kPa): 218.01 ± 5.4 m/s; speed of sound (614.03 K, 10000 kPa): 272.94 ± 7.5 m/s; speed of sound (615.11 K, 5000 kPa): 142.58 ± 3.1 m/s; speed of sound (620.2 K, 8000 kPa): 211.6 ± 5.3 m/s; speed of sound (620.87 K, 2500 kPa): 183.77 ± 4.2 m/s; speed of sound (621.22 K, 4000 kPa): 157.32 ± 3.5 m/s; speed of sound (622.48 K, 6000 kPa): 158.77 ± 3.6 m/s; speed of sound (623.13 K, 10000 kPa): 260.67 ± 7.2 m/s; speed of sound (623.25 K, 5000 kPa): 150.58 ± 3.2 m/s; speed of sound (623.42 K, 3000 kPa): 174.58 ± 4 m/s; speed of sound (631.85 K, 4000 kPa): 163.15 ± 3.6 m/s; speed of sound (632.04 K, 3000 kPa): 179.96 ± 4.1 m/s; speed of sound (632.18 K, 2500 kPa): 189.44 ± 4.3 m/s; speed of sound (632.29 K, 5000 kPa): 156.55 ± 3.4 m/s; speed of sound (632.41 K, 6000 kPa): 159.42 ± 3.5 m/s; speed of sound (632.86 K, 8000 kPa): 201.03 ± 4.8 m/s; speed of sound (640.72 K, 2500 kPa): 192.85 ± 4.6 m/s; speed of sound (641.53 K, 3000 kPa): 186.21 ± 4.2 m/s; speed of sound (641.95 K, 4000 kPa): 173.32 ± 4 m/s; speed of sound (642.59 K, 8000 kPa): 195.65 ± 4.6 m/s; speed of sound (643.04 K, 6000 kPa): 164.74 ± 3.6 m/s; speed of sound (643.51 K, 5000 kPa): 165.41 ± 3.6 m/s; speed of sound (650.07 K, 2500 kPa): 195.77 ± 4.6 m/s; speed of sound (650.9 K, 3000 kPa): 189.41 ± 4.3 m/s
